Molecules are shown by their SMILES. “Also recorded” adds a separate entry of the source.

The source of these data is patent US20260068886A1, “COMPOSITIONS AND METHODS FOR TARGETED INHIBITION AND DEGRADATION OF PROTEINS IN AN INSECT CELL” (Oerth Bio LLC, priority 2022, published 2026).

One assay concerns FKBP-GFP. The experiment in a line: sfVHL mediated FKBP degradation in Sf9 cells expressing FKBP-GFP-P2A-RFP (fluorescence microscopy). The format is cell-based. The procedure: FIG. 2 presents graphs showing the FKBP-GFP to RFP signal ratio when treated with dTAG-V1 (dose curve) and Bortezomib (1 or 10 μM).
FIG. 3 presents microscopy images showing the data plotted in the graphs of FIG. 2. The images are of dTAG-V1 treated Sf9 cells expressing FKBP-GFP-P2A-RFP observed in Brightfield, green fluorescent protein and red fluorescent protein excitation wavelengths.
Sf9 cells were seeded into individual wells of 6-well sterile tissue culture plates (2×10^6 cells per well) with 2 mL fresh Sf900 III serum-free medium prior to the assay. The Sf9 cells were transfected with a plasmid expressing FKBP-GFP-P2A-RFP. Plasmid construct (in TE buffer) was aliquoted into a sterile Eppendorf microcentrifuge tube, with fresh sSf900 III medium added to each Plasmid. Cellfectin II reagent (Life Technologies, Carlsbad, CA) was then added to the transfection mixture, and the tubes were inverted to mix and incubated at room temperature for 30 minutes. All media was removed from each well just prior to the addition of the transfection mixture. Complete transfection mixtures were added to cells dropwise using a P1000 pipette with sterile filter tips. Cells overlayed with transfection mixtures were incubated at 27° C. for 4 hours. Following 4 hours of incubation time, transfection mixtures were removed and replaced with 2 mL of fresh complete medium per well (Sf900 III). Cells were allowed to incubate at 27° C. for 96 hours to allow expression from the transfected plasmid. After construct expression, cells are harvested for further experiments. Cells were detached using a P1000 pipette with sterile filter tips. Cells were resuspended in fresh Sf900 III medium. Transfected Sf9 cells were seeded into individual wells of 96-well sterile tissue culture plates (1×10^6 cells per well) with 0.1 mL fresh Sf900 III serum-free medium. Cells were then supplemented with a 10× stock of the indicated compounds (dTAGV1, dTAG-V1-NEG, Bortezomib). Protein levels were finally analyzed using Carl Zeiss microscopy and FIJI image analysis.

For assay [1], the system named is MBP-FKBP-Hibit-His6 / sfVHL:sfElonginB/C+CUL2/RBX1. The assay can be described thus: in vitro ubiquitination of MBP-FKBP-Hibit-His6 by sfVHL mediated by dTAGV-1 (Western blot, anti-His6). The format is biochemical. The conditions noted are these: sfVHL:sfElonginB/C + human CUL2/RBX1, E1, E2, ATP, ubiquitin; range of concentrations; room temperature. The source says:
Lanes 1-4 and 5-8 are replicates of dose dependent dTAGV-1 dependent ubiquitination of MBP-FKBP-HIbit by sfVHL in vitro. In vitro ubiquitination is sfVHL dependent. No ubiquitination of MBP-FKBP-Hibit is observed in the absence of sfVHL (Lanes 9-16).
To assess the ability of sfVHL to act as a CUL2 adaptor protein en route to ubiquitination, sfVHL was expressed and purified recombinantly from E. coli as a complex with sfElonginB and C. […] The intensity and number of resolved bands observed, each indicating a distinct ubiquitination pattern of MBP-FKBP-Hibit-His6, was dependent on the dTAGV-1 concentration in the preparation. […] Further, ubiquitination as indicated by the complex band pattern above the MBP-FKBP-Hibit-His6 protein, was only observed when sfVHL:sfElonginB/C+CUL2/RBX1 was present confirming that the observed ubiquitination is PROTAC and sfVHL:sfElonginB/D+CUL2/RBX1 complex dependent.
To assess the ability of sfVHL to act as a CUL2 adaptor protein en route to ubiquitination, sfVHL was expressed and purified recombinantly from E. coli as a complex with sfElonginB and C. […] Further, ubiquitination was only observed when sfVHL:sfElonginB/C+CUL2/RBX1 was present confirming that MBP-FKBP-Hibit-His6 ubiquitination is PROTAC and sfVHL:sfElonginB/D+CUL2/RBX1 complex dependent.
Background: Immunoblotting shows a protein as a band on a membrane.

Consider `CC(C)C[C@H](NC(=O)[C@H](Cc1ccccc1)NC(=O)c1cnccn1)B(O)O` [bortezomib, Bortezomib], for which the “effect on dTAG-V1 dependent reduction of GFP signal” value in the assay with FKBP-GFP (added together with dTAG-V1 (1 or 10 μM)) is listed as “prevents the dTAG-V1 dependent reduction of GFP signal”. Turning to `CC[C@H](C(=O)N1CCCC[C@H]1C(=O)O[C@H](CCc1ccc(OC)c(OC)c1)c1ccccc1OCC(=O)NCCCCCCC(=O)N[C@H](C(=O)N1C[C@@H](O)C[C@@H]1C(=O)N[C@@H](C)c1ccc(-c2scnc2C)cc1)C(C)(C)C)c1cc(OC)c(OC)c(OC)c1` [dTAG-V1-NEG], the “GFP fluorescence (FKBP-GFP)” value with FKBP-GFP (24 hours of incubation) is listed as “no decrease in green fluorescent protein is observed”.

As for `CC[C@H](C(=O)N1CCCC[C@H]1C(=O)O[C@H](CCc1ccc(OC)c(OC)c1)c1ccccc1OCC(=O)NCCCCCCC(=O)N[C@H](C(=O)N1C[C@H](O)C[C@H]1C(=O)N[C@@H](C)c1ccc(-c2scnc2C)cc1)C(C)(C)C)c1cc(OC)c(OC)c(OC)c1` [dTAG-V1], in the assay on FKBP-GFP (24 hours of incubation), the “GFP fluorescence (FKBP-GFP)” value is “significantly decreased”, the RFP signal result was “remains unchanged” and the “concentration of optimal decrease of GFP fluorescence” value is listed as around 100 nM. `CC[C@H](C(=O)N1CCCC[C@H]1C(=O)O[C@H](CCc1ccc(OC)c(OC)c1)c1ccccc1OCC(=O)NCCCCCCC(=O)N[C@H](C(=O)N1C[C@H](O)C[C@H]1C(=O)N[C@@H](C)c1ccc(-c2scnc2C)cc1)C(C)(C)C)c1cc(OC)c(OC)c(OC)c1` [dTAGV-1]: in assay [1], the “ubiquitination of MBP-FKBP-Hibit-His6” value is “PROTAC mediated mono- and poly-ubiquitination of the protein; also recorded: observed in the presence of dTAGV-1 in a dose dependent manner; also recorded: FKBP substrate is ubiquitinated in vitro”.
